Measurements: paper PMC12592502, “Unraveling the mechanisms behind the enhanced efficacy of β-lactam-based sideromycins” (Communications Biology, 2025)
In brackets after ≈: the same amount, converted by molar mass. Where two headings read alike, the source gives them in different places.

Experiments:
K. pneumoniae ATCC 13883 = test: MIC, broth microdilution (CLSI); assay type: cell-based, Klebsiella pneumoniae; settings: for MIC ratio 0/1: 0 and 1 µg/mL supplemental iron (Table S2); for MIC ratio 1/0: 1 versus 0 µg/mL supplemental iron (peer review file table); for MIC with β-lactamase inhibitor (βI): + 4 μg/mL clavulanic acid
Description: (§1) All bacterial strains (see description and sources Table S1) were stored at −80 °C, and grown on tryptone soya agar (TSA) at 35 °C. The iron-deprived (ID)-MHBCA (cation-adjusted Muller-Hinton Broth, Becton Dickinson, Mississauga, ON, Canada) medium was prepared as reported by refs. [21],[50]. Briefly, MHBCA was treated with 10% Chelex® 50-100 mesh (Sigma) and stirred for 6 h at room temperature. The resin was removed by filtration. Divalent Ca^2+ (CaCl2), Mg^2+ (MgCl2), and Zn^2+(ZnSO4), were then added in the iron-depleted medium at 22, 12, and 1 μg/ml respectively. Finally, the pH was adjusted to 7.3, and the medium was sterilized with a 0.2-μm filter. Regular MHBCA (i.e., not treated with Chelex®) was used to compare the inhibitory activity of conjugates in iron-sufficient conditions. The resin used for Chelex treatment was always fresh and had never been regenerated, ensuring consistent iron removal.
(§2) Minimal inhibitory concentrations (MICs) were performed using a broth microdilution technique according to the Clinical and Laboratory Standards Institute (CLSI) guidelines. MICs were determined in MHBCA and in ID-MHBCA. To check the impact of β-lactamases, MICs in the presence of a β-lactamase inhibitor were also determined. The inhibitor was homogenized at 2X the final concentration and added to the bacterial inoculum just before distributing cells into the wells containing the drug dilutions. The final concentration of each inhibitor was 4 μg/mL for clavulanic acid (tested against K. pneumoniae) and 200 μg/mL for 3-aminophenylboronic acid (tested against P. aeruginosa and A. baumannii).

A. baumannii ATCC 19606 = test: MIC, broth microdilution (CLSI); assay type: cell-based, Acinetobacter baumannii; settings: for MIC ratio 0/1: 0 and 1 µg/mL supplemental iron (Table S2); for MIC ratio 1/0: 1 versus 0 µg/mL supplemental iron (peer review file table); for MIC in combination with PAβN: + 25 µg/mL PAβN
Description: as §1, §2

E. coli ΔcirA = test: MIC, Keio mutant; assay type: cell-based, Escherichia coli
Description: as §1, with “conditions.” for “conditions. The resin used for Chelex treatment was always fresh and had never been regenerated, ensuring consistent iron removal.”
as §2

E. coli ΔfhuA = test: MIC, Keio mutant; assay type: cell-based, Escherichia coli
Description: as §1, with “conditions.” for “conditions. The resin used for Chelex treatment was always fresh and had never been regenerated, ensuring consistent iron removal.”
as §2

E. coli Δfiu = test: MIC, Keio mutant; assay type: cell-based, Escherichia coli
Description: as §1, with “conditions.” for “conditions. The resin used for Chelex treatment was always fresh and had never been regenerated, ensuring consistent iron removal.”
as §2

PBP1a = target: T1, PBP1a (Pseudomonas aeruginosa, UniProt Q07806); test: Membrane PBP binding assay, competition with Bocillin FL; settings: P. aeruginosa ATCC 27853 membranes; read-out: IC50 PBP1a
T1 construct: using bacterial membranes as the source of PBPs; endogenous in cells; host or cells: P. aeruginosa ATCC 27853 membrane preparation
T1 sequence (Q07806 whole entry): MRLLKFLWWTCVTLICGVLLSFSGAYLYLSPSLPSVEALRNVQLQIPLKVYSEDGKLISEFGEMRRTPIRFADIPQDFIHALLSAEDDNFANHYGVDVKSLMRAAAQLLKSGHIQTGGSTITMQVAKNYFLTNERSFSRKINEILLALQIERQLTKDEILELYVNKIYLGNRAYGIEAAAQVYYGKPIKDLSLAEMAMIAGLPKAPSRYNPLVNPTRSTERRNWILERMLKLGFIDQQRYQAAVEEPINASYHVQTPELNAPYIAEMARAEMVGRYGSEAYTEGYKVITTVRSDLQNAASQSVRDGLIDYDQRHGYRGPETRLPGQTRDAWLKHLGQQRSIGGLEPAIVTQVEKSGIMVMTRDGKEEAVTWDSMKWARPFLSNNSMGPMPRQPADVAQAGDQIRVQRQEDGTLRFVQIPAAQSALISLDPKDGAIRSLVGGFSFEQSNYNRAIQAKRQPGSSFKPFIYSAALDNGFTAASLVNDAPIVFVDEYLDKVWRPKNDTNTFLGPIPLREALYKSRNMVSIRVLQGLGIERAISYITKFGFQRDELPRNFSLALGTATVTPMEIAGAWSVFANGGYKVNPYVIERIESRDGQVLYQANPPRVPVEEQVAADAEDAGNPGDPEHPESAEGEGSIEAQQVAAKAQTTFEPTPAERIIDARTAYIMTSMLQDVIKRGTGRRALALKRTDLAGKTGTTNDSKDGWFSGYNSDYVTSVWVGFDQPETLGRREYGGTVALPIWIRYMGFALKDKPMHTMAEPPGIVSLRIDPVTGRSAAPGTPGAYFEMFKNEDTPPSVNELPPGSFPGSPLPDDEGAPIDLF
Description: (§3) Membrane extracts containing PBPs were obtained as described above. Briefly, all species were grown in 1 L of TSB until the OD600 reached 0.9. The washed pellet was incubated with lysozyme (400 μg/mL), DNase (10 μg/mL) RNase(10 μg/mL) and anti-protease cocktail (200 mg/20 mL). Lysis was done with a French press (20,000 psi) and membrane protein were pelleted by ultracentrifugation steps (100,000 × g). The pellet was suspended in a minimal volume (300–500 μL) of KP 0.05 M buffer at pH 7. The protein concentration in the membrane preparations was determined with the Micro BCA TM Protein Assay Kit (Thermo Fisher Scientific, Rockford, IL) using bovine serum albumin as a standard.
(§4) The PBP binding assay was done as described previously[36],[56],[57]. For each antibiotic concentration tested, a quantity of 25 to 40 μg of membrane preparation was used as the source of PBPs, depending on the species. For the purified PaPBP3, 150 ng was used in the assay. First, increasing concentrations of the test antibiotic was added to the membrane or purified PaPBP3 preparations and incubated for 10 min at 30 °C. The reporter molecule Bocillin FL was then added at 12.5 μM for the membrane PBPs preparations and at 500 nM for the pure PaPBP3 samples for an additional 20 min at 30 °C. All reactions were stopped with the addition of the Laemmli-loading buffer (Bio-Rad) containing fresh β-mercaptoethanol (Sigma). All reactions were then heated at 100°C for 3 min before migration on SDS-polyacrylamide discontinuous gel system (7.5% stacking and 10% separating). Control samples without Bocillin FL were also included to highlight autofluorescent proteins that are not PBPs.
(§5) To be able to visualize labeled PBPs after electrophoresis, gels were rinsed in water and fixed in a solution of 50% methanol and 7% acetic acid for 30 min. The fluorescent images of gels were obtained with the Typhoon FLA 9500 instrument (GE-Healthcare Bio-Sciences Inc., Baie-d’Urfé, QC, CA) using a 473 nm excitation wavelength. To obtain quantifiable data, the software Quantity One 1D analysis was used (version 4.6.6; Bio-Rad Laboratories, Richmond, CA). The volume (intensity × constant area) of each PBP was measured. […] All IC50 data were obtained from at least two independent PBP binding assays using two different sets of compound concentrations using a linear regression. The PBP profiles were confirmed, and the PBP numbering were determined using published data and individual molecular weights. […] For example, amdinocillin (Sigma) was used for PBP2 identification. […] The IC50 for PBP 2 of P. aeruginosa was measured by including the SDS-PAGE comigrating autofluorescent protein in the background, as done previously.

PBP1a/1b = test: as above; settings: K. pneumoniae ATCC 13883 membranes
Description: as §3, §4, §5

[1] = Klebsiella pneumoniae, ATCC13883, ID-MHBCA (−), 0 µg/mL supplemental iron
[2] = Klebsiella pneumoniae, ATCC13883, ID-MHBCA + 1 µg/mL supplemental iron
[3] = Klebsiella pneumoniae, ATCC13883, MHBCA (+)
[4] = Acinetobacter baumannii, ATCC19606, ID-MHBCA (−), 0 µg/mL supplemental iron, read-out: MIC
[5] = Acinetobacter baumannii, ATCC19606, ID-MHBCA + 0.1 µg/mL supplemental iron, read-out: MIC
[6] = Acinetobacter baumannii, ATCC19606, ID-MHBCA + 1 µg/mL supplemental iron, read-out: MIC
[7] = Acinetobacter baumannii, ATCC19606, ID-MHBCA, + 200 μg/mL APB, read-out: MIC with β-lactamase inhibitor (βI)
[8] = Acinetobacter baumannii, ATCC19606, MHBCA (+), no inhibitor, read-out: MIC
[9] = Acinetobacter baumannii, ATCC19606, MHBCA, + 200 μg/mL APB, read-out: MIC with β-lactamase inhibitor (βI)
[10] = ID-MHBCA (−), 0 µg/mL supplemental iron

Row | SMILES | MIC ratio unconjugated β-lactam/conjugate (K. pneumoniae ATCC 13883; ID-MHBCA) | MIC ratio 0/1 (K. pneumoniae ATCC 13883; ID-MHBCA) | MIC ratio 1/0 (K. pneumoniae ATCC 13883; ID-MHBCA) | MIC with β-lactamase inhibitor (βI) (K. pneumoniae ATCC 13883; ID-MHBCA) [µM] | MIC (K. pneumoniae ATCC 13883; [1]) [µM] | MIC (K. pneumoniae ATCC 13883; [2]) [µM] | MIC (K. pneumoniae ATCC 13883; [3]) [µM] | MIC ratio unconjugated β-lactam/conjugate (K. pneumoniae ATCC 13883; MHBCA) | MIC with β-lactamase inhibitor (βI) (K. pneumoniae ATCC 13883; MHBCA) [µM] | MIC (A. baumannii ATCC 19606; [4]) [µM] | MIC (A. baumannii ATCC 19606; [5]) [µM] | MIC (A. baumannii ATCC 19606; [6]) [µM] | MIC (A. baumannii ATCC 19606; [7]) [µM] | MIC (A. baumannii ATCC 19606; [8]) [µM] | MIC (A. baumannii ATCC 19606; [9]) [µM] | MIC ratio 0/1 (A. baumannii ATCC 19606; ID-MHBCA) | MIC ratio 1/0 (A. baumannii ATCC 19606; ID-MHBCA) | MIC in combination with PAβN (A. baumannii ATCC 19606; MHBCA) [µM] | IC50 (PBP1a) [µM] | IC50 (PBP1a/1b) [µM] | other results
1 | O=C(CN(CCCCNC(=O)c1cccc(O)c1O)C(=O)c1cccc(O)c1O)NC(C(=O)NC1C(=O)N2C(C(=O)O)=C(Cl)CCC12)c1ccccc1 (stereo not drawn) [BLOR, bis-catechol (azotochelin)-loracarbef] | 16 | 64 | 64 | 0.1 | 0.1 (≈ 0.075 µg/mL) | 6.3 | 0.2 (≈ 0.15 µg/mL) | 8 | 0.2 | 0.024 (≈ 0.018 µg/mL) | 0.1 | 0.4 | 0.012 | 0.05 (≈ 0.0375 µg/mL) | 0.012 | 16 | 16 | > 6.3 | 0.58 ± 0.04 | 0.43 ± 0.17 | MIC (K. pneumoniae ATCC 13883; Klebsiella pneumoniae, ATCC13883, ID-MHBCA + 0.1 µg/mL supplemental iron): 0.4 µM; MIC ratio unconjugated β-lactam/conjugate (A. baumannii ATCC 19606; MHBCA): >4096; MIC (E. coli ΔcirA; Escherichia coli, ID-MHBCA): 0.2 µM (≈ 0.15 µg/mL); MIC (E. coli ΔcirA; Escherichia coli, MHBCA): 13 µM (≈ 9.75 µg/mL); MIC (E. coli ΔfhuA; Escherichia coli, ID-MHBCA): 0.024 µM (≈ 0.018 µg/mL); MIC (E. coli ΔfhuA; Escherichia coli, MHBCA): 0.1 to 0.4 µM (≈ 0.075 to 0.3 µg/mL); MIC (E. coli ΔfhuA; MHBCA): 0.2 µM (≈ 0.15 µg/mL); MIC (E. coli Δfiu; Escherichia coli, ID-MHBCA): 0.024 µM (≈ 0.018 µg/mL); MIC (E. coli Δfiu; Escherichia coli, MHBCA): 0.1 to 0.4 µM (≈ 0.075 to 0.3 µg/mL); MIC (E. coli Δfiu; MHBCA): 0.1 µM (≈ 0.075 µg/mL)
2 | O=C(CCC(=O)N(CCCCNC(=O)c1cccc(O)c1O)CCCNC(=O)c1cccc(O)c1O)NCCCCCN(O)C(=O)CCCC(=O)NC(C(=O)NC1C(=O)N2C(C(=O)O)=C(Cl)CSC12)c1ccccc1 (stereo not drawn) [MCEF, mixed ligand bis-catechol-mono-hydroxamate-cefaclor] | <0.016 |  |  | 200 | > 200 | > 200 | > 200 | <0.016 | 13 | 0.2 (≈ 0.216 µg/mL) | 1.6 | > 6.3 | 0.012 | 1.6 (≈ 1.73 µg/mL) | 0.4 | > 32 | > 32 | > 6.3 | 0.39 ± 0.35 | 0.35 ± 0.02 | MIC (K. pneumoniae ATCC 13883; [10]): >200 µM; MIC (K. pneumoniae ATCC 13883; MHBCA (+)): >200 µM; MIC ratio unconjugated β-lactam/conjugate (A. baumannii ATCC 19606; ID-MHBCA): >1024; MIC ratio unconjugated β-lactam/conjugate (A. baumannii ATCC 19606; MHBCA): >128; MIC (E. coli ΔcirA; Escherichia coli, ID-MHBCA): > 200 µM; MIC (E. coli ΔcirA; Escherichia coli, MHBCA): > 200 µM; MIC (E. coli ΔcirA; MHBCA): >200 µM; MIC (E. coli ΔfhuA; Escherichia coli, ID-MHBCA): > 200 µM; MIC (E. coli ΔfhuA; Escherichia coli, MHBCA): 13 µM (≈ 14.1 µg/mL); MIC (E. coli Δfiu; Escherichia coli, ID-MHBCA): > 200 µM; MIC (E. coli Δfiu; Escherichia coli, MHBCA): 100 µM (≈ 108 µg/mL)
3 | N[C@@H](C(=O)N[C@@H]1C(=O)N2C(C(=O)O)=C(Cl)CC[C@H]12)c1ccccc1 [LOR, loracarbef, reference compound] |  | 2 | 2 | 1.6 |  |  |  |  | 1.6 |  |  |  |  |  |  |  |  | > 200 | > 50 | 4.5 ± 2.1 | MIC (K. pneumoniae ATCC 13883; [10]): 1.6 µM (≈ 0.56 µg/mL); MIC (K. pneumoniae ATCC 13883; ID-MHBCA + 0.1 µg/mL supplemental iron): 1.6 µM; MIC (K. pneumoniae ATCC 13883; ID-MHBCA + 1 µg/mL supplemental iron): 3.1 µM; MIC (K. pneumoniae ATCC 13883; MHBCA (+)): 1.6 µM (≈ 0.56 µg/mL); MIC (A. baumannii ATCC 19606; ID-MHBCA (−), 0 µg/mL supplemental iron, read-out: MIC): >200 µM; MIC (A. baumannii ATCC 19606; ID-MHBCA + 1 µg/mL supplemental iron, read-out: MIC): > 200 µM; MIC (A. baumannii ATCC 19606; ID-MHBCA, + 200 μg/mL APB, read-out: MIC with β-lactamase inhibitor (βI)): >200 µM; MIC (A. baumannii ATCC 19606; MHBCA (+), no inhibitor, read-out: MIC): >200 µM; MIC (A. baumannii ATCC 19606; MHBCA, + 200 μg/mL APB, read-out: MIC with β-lactamase inhibitor (βI)): >200 µM; MIC (E. coli ΔcirA; ID-MHBCA): 13 µM (≈ 4.55 µg/mL); MIC (E. coli ΔcirA; MHBCA): 13 µM (≈ 4.55 µg/mL); MIC (E. coli ΔfhuA; ID-MHBCA): 6.3 µM (≈ 2.2 µg/mL); MIC (E. coli ΔfhuA; MHBCA): 6.3 µM (≈ 2.2 µg/mL); MIC (E. coli Δfiu; ID-MHBCA): 6.3 µM (≈ 2.2 µg/mL); MIC (E. coli Δfiu; MHBCA): 6.3 µM (≈ 2.2 µg/mL)
